Measured values: patent publication US12440466B2, “Fatty acid derivatives for treating non-alcoholic steatohepatitis” (BASF AS, priority 2017, dated 2025)
Marks after values point to notes of the source that are not given here.

How the values were obtained:
[1] = test system: CETP; test: CETP expression in APOE*3.CETP mice; assay type: in vivo, mouse; details: Compound A
[2] = test system: Col1a1 mRNA; test: Hepatic Col1a1 mRNA expression by qPCR, CDAA/high-fat diet mouse model; assay type: in vivo; details: CDAA/high-fat fed mice
From the text: (§1) Mice were fed either choline-sufficient (CS) or choline deficient high-fat diets (31% total calories; “CDAA/high-fat”). The NASH inducing diet was instigated 6 weeks prior to the commencement of treatment in order to design the study as a treatment/reversal set-up rather than prophylaxis.
After 6 weeks of either the CS- or CDAA diet, mice were orally administered Compound A or comparison Compound N, both at 2 doses, 0.15 mmol/kg bw/day (low-dose, LD) and 0.3 mmol/kg bw per day (high-dose, HD). The test substances were administered orally as admix to the high-fat diet. Hepatic fibrosis was assessed by both measurement of hydroxyproline (HYP) content and Sirius Red (SR) morphometry. Fibrosis, inflammation and metabolism related transcripts levels were measured by quantitative real-time polymerase chain reaction (qPCR).
(§2) Studies were performed in male C56BL/6J mice (9 weeks old). Mice were divided into 6 experimental groups (n=9 per group) containing either CS or CDAA/high-fat diets, as described above. The NASH inducing CDAA/high fat diet was instigated 6 weeks prior to the commencement of treatment in order to assess treatment/reversal rather than prophylaxis. […] Compound A was administered orally as admix to the high-fat diet whilst GLP-1 agonist was delivered via intraperitoneal injection (i.p.). Fibrosis, inflammation and metabolism related transcripts levels were measured by quantitative real-time polymerase chain reaction (qPCR) in isolated liver tissue.

[3] = test system: inflammatory genes; test: Hepatic inflammatory gene expression in ob/ob AMLN mice; assay type: in vivo, mouse; details: 4 weeks, Compound A 112 mg/kg
Procedure: (§3) Obese diet-induced B6.V-Lepob/Jrj mice (ob/ob) are consistently fibrosis (liver) prone when cholesterol (2%), 40% fat (containing 18% trans-fatty acids) and 20% fructose are added to a high-caloric diet (i.e., AMLN high-fat diet). ob/ob mice on AMLN diet (termed ‘ob/ob AMLN mice’) develop steatohepatitis and fibrosis within a shorter timeframe ([…]) compared with wild-type C57BL/6 mice (AMLN mice) fed the same diet. ob/ob AMLN mice provide an obese diet-induced model of NASH that also allows the study of effects on glycemic control. Development of NASH in the ob/ob AMLN model is confirmed by biopsy.
In Biological Examples 10-12, 15, and 19, studies were performed in male ob/ob mice (5 weeks old) fed an AMLN high-fat diet for 15 weeks, then randomized into 3 groups (n=10 per group) to receive either 112 mg/kg bw per day of Compound A via diet, 30 mg/kg bw per day pioglitazone via diet or no treatment (vehicle) for a further 4 weeks. An oral glucose tolerance test (OGTT) was performed at week 3. Hepatic fibrosis was assessed via measurements of hepatic fibrogenic/fibrolytic gene expression by RNA sequencing at 4 weeks.

[4] = test system: ob/ob AMLN mice; test: Hepatic hydroxyproline (HYP) content in ob/ob AMLN mice; assay type: in vivo, mouse; details: 8 weeks; for HYP content, total: p<0.01; for HYP content, relative: p<0.05
Procedure: as §3
(§4) In Biological Examples 10, 13-14, and 16-18, studies were performed in male ob/ob mice (5 weeks old) fed an AMLN high-fat diet for 18 weeks, then randomized into 6 groups (n=10 per group) to receive either Compound A (at 3 different daily doses, 45 mg/kg, 90 mg/kg or 135 mg/kg) via diet, 30 mg/kg bw per day obeticholic acid (OCA) via diet, or no treatment (vehicle) for a further 8 weeks. Assessment of NASH related parameters and fibrosis was made at study end by quantitative immune histochemistry (IHC) measurements.
To corroborate the anti-fibrotic effects seen with quantitative IHC, hepatic concentrations of hydroxyproline (HYP) were measured, as shown in FIG. 6E and FIG. 6F.

[5] = test system: LX-2 human hepatic stellate cells; test: LX-2 stellate cell proliferation by BrdU incorporation; assay type: cell-based; details: LX-2 cells, 24 hours
Procedure: Stellate cells are resident liver cells and the major cell type involved in the initiation and progression of liver fibrosis. In Biological Example 20, in vitro studies were performed on cultured human stellate cells (LX-2 cells) to assess direct effects of Compound A on these cells. Cells were treated for 24 hours with Compound A (10 μM, 25 μM, 50 μM, or 75 μM) or oleic acid (OA; 75 μM) and bromodeoxyuridine (BrdU) incorporation was assessed to determine effects on proliferation. A MTS (3-(4,5-dimethylthiazol-2-yl)-5-(3-carboxymethoxyphenyl)-2-(4-sulfophenyl)-2H-tetrazolium) assay was used to determine cell viability.
Cell proliferation of LX-2 human hepatic stellate cells treated for 24 hours with 10-75 μM of Compound A or oleic acid (OA) (75 μM) was assessed by BrdU incorporation. The results are normalised mean values ±S.E.M. of 5 independent experiments for icosabutate and 2 independent experiments for OA. […] The reduction in proliferation by Compound A was 25-34% at 24 hours whereas OA had no effect. The comparisons were made by one-way ANOVA with Dunnett's correction for multiple comparisons.

[6] = test system: CDAA/high-fat fed mice; test: Hepatic collagen fiber number, thickness and length by nonlinear multiphoton optical imaging, CDAA/high-fat diet mouse model; assay type: in vivo; details: Compound A 56 mg/kg bw per day orally
Procedure: as §1
In Biological Examples 6 and 7, mice were fed either CS or CDAA/high-fat diets as described above. […] The effect on hepatic collagen fiber number, thickness, and length was determined via nonlinear multiphoton optical imaging system in isolated liver samples from vehicle control (n=8), Compound A (n=9) and GLP-1R (n=8) fed groups.

[7] = test system: MMP-13 mRNA; test: Hepatic MMP-13 mRNA expression by qPCR, CDAA/high-fat diet mouse model; assay type: in vivo; details: CDAA/high-fat fed mice; Compound A 0.3 mmol/kg bw/day oral; GLP-1a 0.4 mg/kg once weekly i.p.
Procedure: as §1, §2

[8] = test system: galectin-3 (Gal-3); test: Hepatic galectin-3 (Gal-3) levels by IHC in ob/ob AMLN mice; assay type: in vivo, mouse; details: 8 weeks, Compound A 45, 90, 135 mg/kg
Procedure: as §3, §4
To assess the effects of 8 weeks treatment with either Compound A (45 mg/kg, 90 mg/kg, or 135 mg/kg) or OCA (30 mg/kg) on hepatic inflammation in ob/ob AMLN mice, IHC was performed to assess galectin-3 (Gal-3) levels.

[9] = pioglitazone 30 mg/kg, data not shown
[10] = pioglitazone 30 mg/kg, vs vehicle

With `CC/C=C\C/C=C\C/C=C\C/C=C\C/C=C\CCCCOC(CC)C(=O)O` (stereo not shown) [Compound A, 2-((5Z,8Z,11Z,14Z,17Z)-icosa-5,8,11,14,17-pentaenyloxy)butanoic acid] the CETP expression [1] was “significantly reduce CETP expression”, the “Col1a1 (relative mRNA expression)” value ([2]; Compound A 0.3 mmol/kg bw/day oral, GLP-1a 0.4 mg/kg once weekly i.p., alone or combined) was 6.2*** and the “Col1a1 (relative mRNA expression)” value ([2]; HD 0.3 mmol/kg bw per day) was 6***. The “Col1a1 (relative mRNA expression)” value ([2]; LD 0.15 mmol/kg bw/day) was 10***, the MAC-2 expression ([3]; data not shown) was “Significant reductions” and the MCP-1 transcript levels [3, 9] was “Neither compound significantly reduced”. The “interleukin (IL)-1β transcript levels” value [3, 9] was “Neither compound significantly reduced”, the CCR2 expression [3, 10] was “Significant reductions” and the CD14 expression [3, 10] was “Significant reductions”. The CD68 expression [3, 10] was “Significant reductions”, the “transcript levels of TGF-β1” value [3, 10] was “reduced” and the “transcript levels of TGF-β1 receptor (TGFRβ)” value [3, 10] was “reduced”. The “Galectin-3 (Gal-3) levels” value ([3]; vs vehicle) was “significantly reduced”, the “HYP content, total” value ([4]; Compound A 90 mg/kg) was “reduced” and the “HYP content, relative” value ([4]; Compound A 90 mg/kg) was “reduced”. The “HYP content, total” value ([4]; Compound A 135 mg/kg) was “reduced”, the “HYP content, relative” value ([4]; Compound A 135 mg/kg) was “reduced” and the “proliferation (BrdU incorporation) compared to OA or vehicle” value (“proliferation … compared to OA or vehicle” below) ([5]; 25 μM, p<0.005) was “less proliferative”. The “proliferation … compared to OA or vehicle” value ([5]; 50 μM, p<0.0001) was “less proliferative”, the “proliferation … compared to OA or vehicle” value ([5]; 75 μM, p<0.005) was “less proliferative” and the “reduction in proliferation (BrdU incorporation)” value ([5]; Compound A 25-75 μM) was 25-34%. The collagen fiber length [6] was “slight increases”, the collagen fiber thickness [6] was “slight increases” and the “short (<8.5 μm) and thin (<3.5 μm) collagen fibers” value [6] was “almost complete disappearance”. The “reduction of collagen fiber numbers” value ([6]; p=0.01) was 51%, the “MMP-13 (relative mRNA expression)” value [7] was 1.6*** and the “Gal-3 expression level, percentage of area” value [8] was “dose responsive reduction”. The “Gal-3 expression level, total content” value ([8]; OCA 30 mg/kg) was “dose responsive reduction”.
